For assay [1], the target named is GST-Syk Full Protein (human) (Homo sapiens, UniProt P43405). Put plainly: Syk kinase inhibition test (HTRF method). Type of assay: biochemical. The method, boiled down:
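HTRF read-out: after EDTA termination and 1 h with XL665-streptavidin and Eu-anti-phosphotyrosine, the 665/620 nm ratio was measured. The reaction ran 30 min at 20–25 °C with final 6.4 nM human GST-Syk, 250 nM biotinylated peptide, 100 μM ATP, pH 7.0 HEPES buffer, 2% DMSO.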
A general note: TR-FRET usually uses a lanthanide donor and a delayed reading to cut background.

The test system of assay [2] is cultured human mast cells. Put plainly: Degranulation inhibition test using cultured human mast cells (IgE cross-linking, β-Hexosaminidase release). The conditions noted are these: Mast cell, cultured human mast cells, read-out: human degranulation ave. IC50. Type of assay: cell-based. The method, boiled down:
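Degranulation was triggered by anti-hIgE (10 μg/mL final, 30 min, 37 °C) after a 10-min compound pretreatment (DMSO 0.1%) of cord-blood CD34+-derived mast cells primed 5 days with IL-4 and IgE. β-Hexosaminidase in supernatant was measured with p-nitrophenyl-GlcNAc substrate (A405), expressed against water-lysed total; IC50 (M).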

The mark [3] stands for this setting: HTRF, 100 μM ATP, 30 min room temperature, average, read-out: sykHTRF ave IC50.
The mark [4] stands for this setting: anti-hIgE stimulation, β-Hexosaminidase index, average.
The mark [5] stands for this setting: Tables 1-x, compounds A, read-out: sykHTRF ave IC50.
Where [6] appears, read: Tables 2-x, thiophene compounds B, read-out: sykHTRK ave IC50.
Setting [7] is: Tables 2-x, thiophene compounds B.

Structures can show the parent of a compound that is named as a salt. Where two headings read alike, the source gives them in different places. Bounds are passed on as bounds.

The term IC50 denotes the point on the concentration scale where inhibition reaches its midpoint. With `Cc1ccnc(Nc2cccc(-c3cnc(C4CCN(C(N)=O)CC4)s3)n2)c1` [Compound A-182, 4-{5-[6-(4-methylpyridin-2-ylamino)pyridin-2-yl]thiazol-2-yl}piperidine-1-carboxamide], the IC50 in assay [1] (setting [3]) is less than 0.1 µM; in assay [2] (setting [4]), 0.1 to 1 µM.

For `Cc1ccnc(Nc2cccc(-c3cnc(COCC(=O)N4CCN(C)C(=O)C4)s3)n2)c1` [Compound A-388], the IC50 is greater than 1 µM in assay [1] (setting [5]) and greater than 1 µM in assay [2] (Tables 1-x, compounds A).

Regarding `OCCc1ccnc(Nc2cccc(-c3cnc(N4CC[C@@H](O)C4)s3)n2)c1` [Compound A-577, (R)-1-(5-{6-[4-(2-hydroxyethyl)pyridin-2-ylamino]pyridin-2-yl}thiazol-2-yl)pyrrolidin-3-ol dihydrochloride], the IC50 is less than 0.1 µM in assay [1] (setting [5]) and 0.1 to 1 µM in assay [2] (Tables 1-x, compounds A).

In the case of `COC(=O)[C@H]1CC[C@H](c2ncc(-c3cccc(Nc4cc5ccccc5cn4)n3)s2)CC1` [Compound A-213], the figures for the IC50 in assay [1] (setting [3]) and in assay [2] (setting [4]) were greater than 1 µM and 0.1 to 1 µM, respectively.

With `COc1ccnc(Nc2cccc(-c3cnc([C@H]4CC[C@H](C(=O)N5CCC(O)CC5)CC4)s3)n2)c1` [Compound A-291], the IC50 in assay [1] (setting [3]) and in assay [2] (setting [4]) was 0.1 to 1 µM in each case.

With `COC(=O)c1ccnc(Nc2cccc(-c3ccc(C(C)=O)s3)n2)c1` [Compound B-53, 2-[6-(5-acetylthiophen-2-yl)pyridin-2-ylamino]isonicotinic acid methyl ester], the half-inhibitory concentration (IC50) in assay [1] (setting [6]) is less than 0.1 µM; in assay [2] (setting [7]), greater than 1 µM.

Regarding `Cc1ccnc(Nc2cccc(-c3cnc(CN4CCCCC4=O)s3)n2)c1` [Compound A-401], the IC50 in assay [1] (setting [5]) is greater than 1 µM; in assay [2] (Tables 1-x, compounds A) it was 0.1 to 1 µM.

As for `Cc1ccnc(Nc2cccc(-c3cnc([C@H]4CC[C@H](C(=O)N(CCO)CCO)CC4)s3)n2)c1` [Compound A-302], the IC50 in assay [1] (setting [3]) and in assay [2] (setting [4]) was 0.1 to 1 µM each time.

In the case of `Cc1ccnc(Nc2cccc(-c3cnc(N4CCC(c5noc(=O)[nH]5)CC4)s3)n2)c1` [Compound A-450, 3-(1-{5-[6-(4-methylpyridin-2-ylamino)pyridin-2-yl]thiazol-2-yl}piperidin-4-yl)-4H-[1,2,4]oxadiazole-5-one], the 50% inhibitory concentration (IC50) was less than 0.1 µM in assay [1] (setting [5]) and greater than 1 µM in assay [2] (Tables 1-x, compounds A).

Take `Cc1ccnc(Nc2cccc(-c3cnc([C@H]4CC[C@H](C(=O)N5CCC[C@H]5CO)CC4)s3)n2)c1` [Compound A-285]: the IC50 in assay [1] (setting [3]) and in assay [2] (setting [4]) was 0.1 to 1 µM throughout.

`CCOC(=O)CC(C)(C)c1ncc(-c2cccc(Nc3cc(C)ccn3)n2)s1` [Compound A-144]: the IC50 in assay [1] (setting [3]) and in assay [2] (setting [4]) was greater than 1 µM in each case.

Turning to `Cc1ccnc(Nc2cccc(-c3cnc(N(C)C(C)(C)c4ccc(C(=O)O)cc4)s3)n2)c1` [Compound A-616, 4-[1-methyl-1-(N-methyl-N-{5-[6-(4-methylpyridin-2-ylamino)pyridin-2-yl]thiazol-2-yl}amino)ethyl]benzoic acid dihydrochloride], the IC50 was less than 0.1 µM in assay [1] (setting [5]) and 0.1 to 1 µM in assay [2] (Tables 1-x, compounds A).

Take `CC(=O)N[C@@H](C)c1ncc(-c2cccc(Nc3cc(OCCN(C)C)ccn3)n2)s1` [Compound A-166]: the IC50 in assay [1] (setting [3]) and in assay [2] (setting [4]) was greater than 1 µM in each case.

Consider `COc1ccnc(Nc2cccc(-c3ccc(C(C)=O)s3)n2)c1` [Compound B-17, 1-{5-[6-(4-methoxypyridin-2-ylamino)pyridin-2-yl]thiophen-2-yl}ethanone], for which the 50% inhibitory concentration (IC50) is less than 0.1 µM in assay [1] (setting [6]) and 0.1 to 1 µM in assay [2] (setting [7]).

Consider `Cc1ccnc(Nc2cccc(-c3cnc(CC(=O)N4C[C@@H](O)[C@@H](O)C4)s3)n2)c1` [Compound A-255], for which the IC50 in assay [1] (setting [3]) and in assay [2] (setting [4]) was 0.1 to 1 µM in each case.

As for `Cc1ccnc(Nc2cccc(-c3cnc(CCC4CCC(=O)CC4)s3)n2)c1` [Compound A-172, 4-(2-{5-[6-(4-methylpyridin-2-ylamino)pyridin-2-yl]thiazol-2-yl}ethyl)cyclohexanone], the IC50 was less than 0.1 µM in assay [1] (setting [3]) and 0.1 to 1 µM in assay [2] (setting [4]).

With `Cc1ccnc(Nc2cccc(-c3cnc(CC(C)(C)N)s3)n2)c1` [Compound A-333], the IC50 in assay [1] (setting [3]) and in assay [2] (setting [4]) was 0.1 to 1 µM in each case.

As for `Cc1ccnc(Nc2cccc(-c3cnc(N(CC(N)=O)[C@H]4CC[C@H](C(=O)O)CC4)s3)n2)c1` [Compound A-600], the IC50 in assay [1] (setting [5]) was 0.1 to 1 µM; in assay [2] (Tables 1-x, compounds A), greater than 1 µM.

Turning to `Cc1ccnc(Nc2cccc(-c3cnc([C@H]4CC[C@H](CN5CCC(O)CC5)CC4)s3)n2)c1` [Compound A-296], the half-inhibitory concentration (IC50) was 0.1 to 1 µM in assay [1] (setting [3]) and greater than 1 µM in assay [2] (setting [4]).

As to `Cc1ccnc(Nc2cccc(-c3cnc(C4CCC(c5nnn[nH]5)CC4)s3)n2)c1` (stereo not drawn) [Compound A-326, N-(4-methylpyridin-2-yl)-N-(6-{2-[4-(1H-tetrazol-5-yl)cyclohexyl]thiazol-5-yl}pyridin-2-yl)amine], the IC50 was less than 0.1 µM in assay [1] (setting [3]) and 0.1 to 1 µM in assay [2] (setting [4]).

With `OCCN(CCO)c1ncc(-c2cccc(Nc3cc(Cl)ccn3)n2)s1` [Compound A-545, 2-[N-{5-[6-(4-chloropyridin-2-ylamino)pyridin-2-yl]thiazol-2-yl}-N-(2-hydroxyethyl)amino]ethanol], the IC50 is less than 0.1 µM in assay [1] (setting [5]) and less than 0.1 µM in assay [2] (Tables 1-x, compounds A).

For the compound `Cc1ccnc(Nc2cccc(-c3cnc(CN)s3)n2)c1` [Compound A-142], the IC50 was 0.1 to 1 µM in assay [1] (setting [3]) and greater than 1 µM in assay [2] (setting [4]).

Consider `CC(=O)N[C@@H](CO)c1ncc(-c2cccc(Nc3cc(C)ccn3)n2)s1` [Compound A-59], for which the IC50 in assay [1] (setting [3]) and in assay [2] (setting [4]) was 0.1 to 1 µM each time.

For the compound `Cc1ccnc(Nc2cccc(-c3cnc([C@H]4CC[C@H](C(=O)N5CCC(N)CC5)CC4)s3)n2)c1` [Compound A-290, (4-aminopiperidin-1-yl)-(trans-4-{5-[6-(4-methylpyridin-2-ylamino)pyridin-2-yl]thiazol-2-yl}cyclohexyl)methanone], the IC50 was less than 0.1 µM in assay [1] (setting [3]) and greater than 1 µM in assay [2] (setting [4]).

For `Cc1ccnc(Nc2cccc(-c3cnc([C@H]4CC[C@H](C(=O)NCCN5CCOCC5)CC4)s3)n2)c1` [Compound A-268, N-(2-morpholin-4-ylethyl)-trans-4-{5-[6-(4-methylpyridin-2-ylamino)pyridin-2-yl]thiazol-2-yl}cyclohexanecarboxamide], the IC50 in assay [1] (setting [3]) was less than 0.1 µM; in assay [2] (setting [4]), 0.1 to 1 µM.

For `CC(=O)c1ccc(-c2cccc(Nc3cc(OCCN(C)C)ccn3)n2)s1` [Compound B-82], the IC50 in assay [1] (setting [6]) and in assay [2] (setting [7]) was 0.1 to 1 µM throughout.

Turning to `Cc1ccnc(Nc2cccc(-c3cnc(CCCC(=O)O)s3)n2)c1` [Compound A-131], the IC50 in assay [1] (setting [3]) was 0.1 to 1 µM; in assay [2] (setting [4]) it was greater than 1 µM.

With `Cc1ccnc(Nc2cccc(-c3cnc(C(=O)CCC(=O)O)s3)n2)c1` [Compound A-124], the IC50 in assay [1] (setting [3]) is 0.1 to 1 µM; in assay [2] (setting [4]) it was greater than 1 µM.

In the case of `Cc1ccnc(Nc2cccc(-c3ccc(C(=O)NC4CC4)s3)n2)c1` [Compound B-104], the IC50 was 0.1 to 1 µM in assay [1] (setting [6]) and greater than 1 µM in assay [2] (setting [7]).

In the case of `CC(O)c1ccnc(Nc2cccc(-c3cnc(N4CCC(C(N)=O)CC4)s3)n2)c1` (stereo not drawn) [Compound A-547, 1-(5-{6-[4-(1-hydroxyethyl)pyridin-2-ylamino]pyridin-2-yl}thiazol-2-yl)piperidine-4-carboxamide], the IC50 in assay [1] (setting [5]) is less than 0.1 µM; in assay [2] (Tables 1-x, compounds A) it was greater than 1 µM.

Turning to `Cc1ccnc(Nc2cccc(-c3cncs3)n2)c1` [Compound A-24], the IC50 in assay [1] (setting [3]) is 0.1 to 1 µM; in assay [2] (setting [4]) it was greater than 1 µM.

With `Cc1ccnc(Nc2cccc(-c3ccc(C(=O)N(C)C)s3)n2)c1` [Compound B-22], the IC50 is 0.1 to 1 µM in assay [1] (setting [6]) and greater than 1 µM in assay [2] (setting [7]).

Regarding `COc1ccnc(Nc2cccc(-c3cnc([C@H](C)NC(C)=O)s3)n2)c1` [Compound A-77], the IC50 in assay [1] (setting [3]) and in assay [2] (setting [4]) was 0.1 to 1 µM each time.

On to `Cc1ccnc(Nc2cccc(-c3cnc(C4CCC(=NO)CC4)s3)n2)c1` (stereo not drawn) [Compound A-74, 4-{5-[6-(4-methylpyridin-2-ylamino)pyridin-2-yl]thiazol-2-yl}cyclohexanone oxime], for which the results for the IC50 in assay [1] (setting [3]) and in assay [2] (setting [4]) were less than 0.1 µM and greater than 1 µM, respectively.

Turning to `Cc1ccnc(Nc2cccc(-c3cnc([C@H]4CC[C@H](C(=O)N5C[C@H](O)C[C@H](O)C5)CC4)s3)n2)c1` [Compound A-227], the IC50 in assay [1] (setting [3]) and in assay [2] (setting [4]) was 0.1 to 1 µM each time.

In the case of `CC(=O)N[C@H]1CC[C@H](c2ncc(-c3cccc(Nc4cc(C)ccn4)n3)s2)CC1` [Compound A-202, N-(trans-4-{5-[6-(4-methylpyridin-2-ylamino)pyridin-2-yl]thiazol-2-yl}cyclohexyl)acetamide], the IC50 was less than 0.1 µM in assay [1] (setting [3]) and greater than 1 µM in assay [2] (setting [4]).

For the compound `COc1cc(Nc2cccc(-c3sc(NC(C)=O)nc3C)n2)ncn1` [Compound A-22], the figures for the IC50 in assay [1] (setting [3]) and in assay [2] (setting [4]) were 0.1 to 1 µM and greater than 1 µM, respectively.

With `Cc1ccnc(Nc2cccc(-c3ccc(-c4nnn[nH]4)s3)n2)c1` [Compound B-95], the IC50 is 0.1 to 1 µM in assay [1] (setting [6]) and greater than 1 µM in assay [2] (setting [7]).

As for `CC(=O)N(C)[C@H](c1ccc(O)cc1)c1ncc(-c2cccc(Nc3cc(C)ccn3)n2)s1` [Compound A-372, N—((R)-(4-hydroxyphenyl)-{5-[6-(4-methylpyridin-2-ylamino)pyridin-2-yl]thiazol-2-yl}methyl)-N-methylacetamide], the figures for the IC50 in assay [1] (setting [3]) and in assay [2] (setting [4]) were less than 0.1 µM and 0.1 to 1 µM, respectively.
